From patent US6334445B1, “Methods and compositions for treatment of ovarian cancer” (Baker Norton Pharmaceuticals, Inc., priority 1997, dated 2002)
Where two headings read alike, the source gives them in different places.

Key:
[1] = infusion times 3 to 24 hours; cited from earlier work
breast cancer [2] = settings: cited from earlier work
breast cancer [3] = settings: paclitaxel 135 mg/m^2 in combination with cisplatin 75 mg/m^2; cited from earlier work
ovarian cancer = settings: cited from earlier work
mammalian cells = settings: 50 nM paclitaxel concentration; cited from earlier work

Source text for ovarian carcinoma: Patients with taxane-resistant ovarian cancer are defined as having (1) progression of disease while receiving taxane therapy; (2) progression within 12 months of taxane therapy; (3) persistent stable disease after six courses of taxane therapy; or (4) persistent stable disease with at least CA-125 rising measurements (to a value of ≧100).
Patients without liver metastases and who had mild liver function abnormalities (SGOT and alkaline phosphatase less than 1.5 times upper normal limit) and a normal bilirubin received a total dose of 140 mg/m^2.
Each mL of sterile solution contains 527 mg polyoxyethylated castor oil (Cremaphor® EL) and 49.7% (w/v) absolute alcohol.
The in-line filter was then connected to the subjects central access device.
The procedure was repeated three more times, for a total 96 hour continuous infusion. The final dose was 140 mg/m^2/96 hours.
Complete response (CR): Complete disappearance of all clinical evidence of disease persisting through the next evaluation period at 6 weeks. Evaluable lesions must have disappeared completely.
Partial Response (PR): At least 50% decrease in the sum of the products of the diameters of all measurable lesions persisting through the next evaluation period at six weeks. In addition, concomitant evaluable lesions must show no evidence of progressive disease or new lesions.
Progressive Disease (PD): 25% or greater progression in the sum of the products of the diameter of any measurable lesion(s) over one cycle of chemotherapy or the appearance of any new lesion consistent with metastatic disease.

With CC(=O)O[C@H]1C(=O)[C@@]2(C)[C@H]([C@H](OC(=O)c3ccccc3)[C@]3(O)C[C@H](OC(=O)[C@H](O)[C@@H](NC(=O)c4ccccc4)c4ccccc4)C(C)=C1C3(C)C)[C@]1(OC(C)=O)CO[C@@H]1C[C@@H]2O [paclitaxel, 5β, 20-epoxy-1 ,2α4,7β10β13α-hexahydroxytax-11-en-9-one 4, 10-diacetate 2-benzoate 12-ester with (2R,3S)-Nbenzoyl-3-phenylisososerine] the partial responses (ovarian carcinoma; of 14 patients, 140 mg/m^2 over 96 hour infusion every 21 days) was 3, the “patients with stable disease” value (ovarian carcinoma; of 14 patients, 96 hour infusion) was “One” and the overall response rate (ovarian carcinoma; partial responses plus stable disease, 14 patients, 96 hour infusion) was 29%. The response rate (ovarian carcinoma; partial responses, 14 patients, 96 hour infusion) was 21%, the dose limiting toxicity [1] was “reversible myelosuppression” and the response rate (breast cancer [2]; doses of 250 mg/m^2 with G-CSF, single agent) was 36-71%. For the same molecule, the response rate (breast cancer [2]; doses of 135 to 175 mg/m^2, single agent) was 13-37%, the response rate (breast cancer [3]) was 79% and the response rate (ovarian cancer; 135 mg/m^2 every three weeks) was 15%. For the same molecule, the response rate (ovarian cancer; 175 mg/m^2 every three weeks) was 20%, the “time to tumor progression” value (ovarian cancer; higher dose (175 mg/m^2)) was 19 weeks and the “time to tumor progression” value (ovarian cancer; lower dose (135 mg/m^2)) was 14 weeks. The “effect on microtubules and cells” value (mammalian cells) was “significant increase in microtubule number”.
